Reference: paper PMC8641298 (ACS infectious diseases, 2020)

Assays:
HeLa cytotoxicity = type: cell-based; settings: human, HeLa cells
adult S. mansoni = assay: WormAssay, average adult worm motility; type: cell-based, Schistosoma mansoni; settings: 5 h; for WormAssay (average adult worm movement ± SD): DMSO control 104.1 ± 24.4
HEK293 cytotoxicity = type: cell-based; settings: human, HEK293 cells (method text: HEK 293T)
S. mansoni adults = assay: In vitro phenotypic screen of S. mansoni adults; type: cell-based, Schistosoma mansoni
S. mansoni somules = assay: In vitro phenotypic screen of S. mansoni somules; type: cell-based, Schistosoma mansoni
[1] = tested on: acetylated α-tubulin in HEK293 cells; assay: HEK293 MT-stabilization assay; type: cell-based; settings: 4 h

| Compound | CC50 at 48 h (HeLa cytotoxicity) [nM] | WormAssay (average adult worm movement ± SD) (adult S. mansoni; 5 μM) | CC50 at 48 h (HEK293 cytotoxicity) [nM] | Phenotypic descriptors, adults (5 μM) 5 h (S. mansoni adults; 5 h) | Phenotypic descriptors, adults (5 μM) 24 h (S. mansoni adults; 24 h) | Phenotypic descriptors, adults (5 μM) 48 h (S. mansoni adults; 48 h) | Phenotypic descriptors, somules (1 μM) 24 h (S. mansoni somules) | Phenotypic descriptors, somules (1 μM) 48 h (S. mansoni somules) | Phenotypic descriptors, somules (10 μM) 24 h (S. mansoni somules) | Phenotypic descriptors, somules (10 μM) 48 h (S. mansoni somules) | Fold-change in acetylated α-tubulin ([1]; 1 μM) | EC50 (adult S. mansoni; Schistosoma mansoni, read-out: EC50 of paralysis measured by WormAssay) [nM] | Fold-change in acetylated α-tubulin ([1]; 10 μM) | WormAssay (average adult worm movement ± SD) (adult S. mansoni; assays performed at 10 μM (footnote d)) | Phenotypic descriptors, adults 5 h (S. mansoni adults; assays performed at 10 μM (footnote d), 5 h) | Phenotypic descriptors, adults 24 h (S. mansoni adults; assays performed at 10 μM (footnote d), 24 h) | Phenotypic descriptors, adults 48 h (S. mansoni adults; assays performed at 10 μM (footnote d), 48 h) |
| --- | --- | --- | --- | --- | --- | --- | --- | --- | --- | --- | --- | --- | --- | --- | --- | --- | --- |
| C[C@@H](Nc1nc(-c2cccs2)nc(Cl)c1-c1c(F)cc(F)cc1F)C(F)(F)F [Compound 27, (R)-6-chloro-2-(thiophen-2-yl)-5-(2,4,6-trifluorophenyl)-N-(1,1,1-trifluoropropan-2-yl)pyrimidin-4-amine] | 27700 ± 10400 | 6.3 ± 9.3 | 29400 | I, on sides | I, on sides | I, on sides | R, S | R | R, I | R, I | – | – | – | – | – | – | – |
| C[C@H](Nc1nc(-c2ccc3ccccc3n2)nc(Cl)c1-c1c(F)cc(F)cc1F)C(F)(F)F [Compound 21, (S)-6-chloro-2-(quinolin-2-yl)-5-(2,4,6-trifluorophenyl)-N-(1,1,1-trifluoropropan-2-yl)pyrimidin-4-amine] | – | 75.3 ± 18.9 | – | N | N | S, on sides | N | N | R, deg | R, deg | 1.95 ± 0.2 (1 μM) fold | – | – | – | – | – | – |
| C[C@H](Nc1nc(-c2cccs2)nc(Cl)c1-c1c(F)cc(F)cc1F)C(F)(F)F [Compound 25, (S)-6-chloro-2-(thiophen-2-yl)-5-(2,4,6-trifluorophenyl)-N-(1,1,1-trifluoropropan-2-yl)pyrimidin-4-amine] | 1660 ± 612 | 5.5 ± 9.8 | 1270 ± 106 | I, on sides | I, on sides | I, on sides | R, S | R, S | rounding and immobility and R, I | R, I, | – | ~1000 | 3.0 ± 0.6 (10 μM) fold | – | – | – | – |
| CC1(CNc2nc(-c3cccs3)nc(Cl)c2-c2c(F)cc(F)cc2F)N=N1 [Compound 30, 6-chloro-N-((3-methyl-3H-diazirin-3-yl)methyl)-2-(thiophen-2-yl)-5-(2,4,6-trifluorophenyl)-pyrimidin-4-amine] | 3890 ± 1860 | 12.9 ± 18.1 | 1270 ± 35 | S, on sides | S, on sides | S, on sides | S | S, R | R, I | R, I | – | – | – | – | – | – | – |
| CC1(CNc2nc(-c3cnccn3)nc(Cl)c2-c2c(F)cc(F)cc2F)N=N1 [Compound 22, 6-chloro-N-((3-methyl-3H-diazirin-3-yl)methyl)-2-(pyrazin-2-yl)-5-(2,4,6-trifluorophenyl)-pyrimidin-4-amine] | 40 ± 12 | 131.4 ± 27.4 | 50 ± 10 | N | N | Unc | R, deg | R, deg | R, deg | R, deg | 2.68 ± 0.04 (1 μM) fold | – | – | – | – | – | – |
| C[C@H](Nc1nc(-c2nccs2)nc(Cl)c1-c1c(F)cc(F)cc1F)C(F)(F)F [Compound 23, (S)-6-chloro-2-(thiazol-2-yl)-5-(2,4,6-trifluorophenyl)-N-(1,1,1-trifluoropropan-2-yl)pyrimidin-4-amine] | 6 ± 1 | – | 8 ± 2 | – | – | – | Deg, unc | Deg, unc | Deg, unc | Deg, unc | – | – | – | 62.1 ± 26.4^d | Unc, dark^d | Unc, dark^d | Unc, dark^d |
| C[C@H](Nc1cc(Cl)nc(-c2cccs2)n1)C(F)(F)F [Compound 31, (S)-6-chloro-2-(thiophen-2-yl)-N-(1,1,1-trifluoropropan-2-yl)pyrimidin-4-amine] | – | 89.0 ± 18.6 | – | N | N | N | R, unc | N | R, unc | N | – | – | – | – | – | – | – |
